Assay results from patent US20110135763A1, “Antiseptic formulation especially for prevention of complications associated with skin burns” (priority 2009, published 2011).

Experiments:
Human Leukocyte Elastase = biological target: T1, Human Leukocyte Elastase (Homo sapiens, UniProt P08246); conditions: Q. Ying et al., 1991; cited from earlier work
T1 sequence (P08246 30-267): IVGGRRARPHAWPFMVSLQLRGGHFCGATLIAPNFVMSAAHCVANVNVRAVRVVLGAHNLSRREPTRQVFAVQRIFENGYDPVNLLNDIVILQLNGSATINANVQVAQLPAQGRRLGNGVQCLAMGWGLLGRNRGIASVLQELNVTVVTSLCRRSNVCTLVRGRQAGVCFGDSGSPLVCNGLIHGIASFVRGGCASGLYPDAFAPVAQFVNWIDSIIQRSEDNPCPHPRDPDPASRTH

small capillaries = experiment: inventor's experiments on the effect of DMSO on blood vessels; conditions: DMSO in a concentration ranging between 50% and 100%; best results at substantially 100%
From the text: The higher the DMSO concentration was taken, the better result was achieved. Such phenomenon may effectively contribute to stopping leakage of capillaries and formation of blister, whereas the leakage and blister are the major factors leading to infections and delayed wound healing, and therefore to scar formation. […] The best results have been observed for usage of DMSO in the concentration of substantially 100%.
(d) DMSO (dimethyl sulfoxide) is known as an industrial solvent that has the ability to penetrate plant and animal tissues and to preserve living cells during freezing. It has bacteriostatic, anti-inflammatory, analgesic, radioprotective, fibrinolytic and vasodilative properties, and inhibits cholinesterase and granulation tissue. DMSO also has been used as an agent to increase the penetrability of other substances. […] This capability of DMSO has increased with an increase of the DMSO concentration, and the best results have been observed for usage of DMSO (USP grade) in the concentration essentially of 100%.

Compound | elastase inhibition (Human Leukocyte Elastase) | effect on small capillaries (small capillaries)
C[C@H]1[C@H](C)CC[C@]2(C(=O)O)CC[C@]3(C)C(=CC[C@@H]4[C@@]5(C)CC[C@H](O)C(C)(C)[C@@H]5CC[C@]43C)[C@H]12 [Ursolic acid] | potent elastase inhibitor | 
C[S+](C)[O-] [DMSO, dimethyl sulfoxide] |  | constricts small capillaries
